In patent US8114814B2, “Herbicide composition” (Kumiai Chemical Industry Co., Ltd., priority 2007, dated 2012):

Legend:
Conditions in all cases: 28th day of the treatment
Cyperus serotinus Rottb. = experiment: Test for herbicidal effect by paddy soil treatment; type: in vivo
Source text: (§1) A paddy soil was filled in a plastic pot of 100 cm^2 and subjected to puddling. Thereinto were sowed seeds of Echinochloa oryzicola Vasing, Monochoria vaginalis (Burm. f.) Kunth, Schoenoplectus juncoides (Roxb.) Paila or Cyperus serotinus Rottb., after which water was filled at a depth of 3 cm. Each pot was placed in a greenhouse for raising, At a timing when the Echinochloa oryzicola Vasing reached about a two-leaf stage, a seedling of two-leaf stage rice (variety: Kinnanpuu) was transplanted into each pot at a depth of 2 cm. A wettable powder prepared in accordance with Formulation Example 2 was diluted with water based on the total sum of the active ingredients, and the dilution was dropped on the water surface of the pot. Then, the pot was allowed to stand for raising. The herbicidal effect of the wettable powder was examined at the 28th day of the treatment (the dropping of the dilution) in accordance with the standard of Table 4.

[1] = system: Echinochloa oryzicola Vasing; experiment: Test for herbicidal effect by paddy soil treatment; type: in vivo
Source text: as §1

[2] = system: Schoenoplectus juncoides (Roxb.) Paila; experiment: Test for herbicidal effect by paddy soil treatment; type: in vivo
Source text: as §1

[3] = system: Monochoria vaginalis (Burm. f.) Kunth; experiment: Test for herbicidal effect by paddy soil treatment; type: in vivo
Source text: as §1

Direct seeding rice = experiment: Test for herbicidal effect by paddy foliage treatment: phytotoxicity to direct seeding rice; type: in vivo, rice (variety: Akebono)
Source text: A paddy soil was filled in a plastic pot of 100 cm^2 and subjected to puddling. Thereinto were sowed seeds of rice (variety: Akebono), Echinochloa crusgalli (L.) P. Beauv. Var. crus-galli, Leptochloa chinensis Nees., Monochoria vaginalis (Burm. f.) Kunth, or Fimbristylis miliacea Vahl, after which each plant was raised in a greenhouse in a drained treatment until the Echinochloa crus-galli (L.) P. Beauv. Var. crus-galli reached a two-leaf stage. […] 3 days after the spraying, water was filled at a depth of 3 cm. Then, the pot was allowed to stand for raising. The herbicidal effect of the wettable powder was examined at the 28th day of the treatment (the spraying of the dilution) in accordance with the standard of Table 4.

Transplanted Rice = experiment: Test for herbicidal effect by paddy soil treatment: phytotoxicity to transplanted rice; type: in vivo, rice (variety: Kinnanpuu)
Source text: as §1, with “A wettable powder prepared in accordance with Formulation Example 2 was diluted with water based on the total sum of the active ingredients, and the dilution was dropped on the water surface of the pot.” left out

[4] = system: Fimbristylis miliacea Vahl; experiment: Test for herbicidal effect by paddy foliage treatment; type: in vivo
Source text: (§2) A paddy soil was filled in a plastic pot of 100 cm^2 and subjected to puddling. Thereinto were sowed seeds of rice (variety: Akebono), Echinochloa crusgalli (L.) P. Beauv. Var. crus-galli, Leptochloa chinensis Nees., Monochoria vaginalis (Burm. f.) Kunth, or Fimbristylis miliacea Vahl, after which each plant was raised in a greenhouse in a drained treatment until the Echinochloa crus-galli (L.) P. Beauv. Var. crus-galli reached a two-leaf stage. At that timing, a wettable powder prepared in accordance with Formulation Example 2 was diluted with water based on the total sum of the active ingredients, and the dilution was sprayed at a rate of 20 liters/10 ares using a micro-sprayer (a product of OLYMPOS). 3 days after the spraying, water was filled at a depth of 3 cm. Then, the pot was allowed to stand for raising. The herbicidal effect of the wettable powder was examined at the 28th day of the treatment (the spraying of the dilution) in accordance with the standard of Table 4.

[5] = system: Echinochloa crusgalli (L.) P. Beauv. Var. crus-galli; experiment: as above; type: in vivo
Source text: as §2

[6] = system: Leptochloa chinensis Nees.; experiment: as above; type: in vivo
Source text: as §2

[7] = system: Monochoria vaginalis (Burm. f.) Kunth; experiment: as above; type: in vivo
Source text: as §2

| SMILES | phytotoxicity index, Direct seeding rice (Direct seeding rice; Dose 20 g a.i./10a) | herbicidal effect index, Cyperus serotinus (Cyperus serotinus Rottb.; Dose 20 g a.i./10a) | herbicidal effect index, Echinochloa oryzicola ([1]; Dose 20 g a.i./10a) | herbicidal effect index, Schoenoplectus juncoides ([2]; Dose 20 g a.i./10a) | herbicidal effect index, Monochoria vaginalis ([3]; Dose 20 g a.i./10a) | phytotoxicity index, Transplanted Rice (Transplanted Rice; Dose 20 g a.i./10a) | herbicidal effect index, Fimbristylis miliacea ([4]; Dose 20 g a.i./10a) | herbicidal effect index, Echinochloa crus-galli ([5]; Dose 20 g a.i./10a) | herbicidal effect index, Leptochloa chinensis ([6]; Dose 20 g a.i./10a) | herbicidal effect index, Monochoria vaginalis ([7]; Dose 20 g a.i./10a) | also measured |
| --- | --- | --- | --- | --- | --- | --- | --- | --- | --- | --- | --- |
| COC(=O)c1ccccc1CS(=O)(=O)NC(=O)Nc1nc(OC)cc(OC)n1 [Bensulfuron-methyl, reference compound] | – | – | – | – | – | – | – | – | – | – | herbicidal effect index, Cyperus serotinus (Cyperus serotinus Rottb.; Dose 1 g a.i./10a): 7 (Herbicidal effect or phytotoxicity of 70% to less than 80%); herbicidal effect index, Echinochloa oryzicola ([1]; Dose 1 g a.i./10a): 3 (Herbicidal effect or phytotoxicity of 30% to less than 40%); herbicidal effect index, Schoenoplectus juncoides ([2]; Dose 1 g a.i./10a): 7 (Herbicidal effect or phytotoxicity of 70% to less than 80%); herbicidal effect index, Monochoria vaginalis ([3]; Dose 1 g a.i./10a): 8 (Herbicidal effect or phytotoxicity of 80% to less than 90%) |
| Cc1ccc(NC(=O)NC(C)(C)c2ccccc2)cc1 [Daimuron, reference compound] | – | – | – | – | – | – | – | – | – | – | herbicidal effect index, Cyperus serotinus (Cyperus serotinus Rottb.; Dose 150 g a.i./10a): 3 (Herbicidal effect or phytotoxicity of 30% to less than 40%); herbicidal effect index, Echinochloa oryzicola ([1]; Dose 150 g a.i./10a): 0 (Herbicidal effect (growth inhibition) or phytotoxicity of less that 10%); herbicidal effect index, Schoenoplectus juncoides ([2]; Dose 150 g a.i./10a): 7 (Herbicidal effect or phytotoxicity of 70% to less than 80%); herbicidal effect index, Monochoria vaginalis ([3]; Dose 150 g a.i./10a): 2 (Herbicidal effect or phytotoxicity of 20% to less than 30%) |
| CCOc1cc(Cl)c(CS(=O)(=O)C2=NOC(C)(C)C2)cc1Cl [Compound 54] | 2 (Herbicidal effect or phytotoxicity of 20% to less than 30%) | 1 (Herbicidal effect or phytotoxicity of 10% to less than 20%) | 8 (Herbicidal effect or phytotoxicity of 80% to less than 90%) | 2 (Herbicidal effect or phytotoxicity of 20% to less than 30%) | 5 (Herbicidal effect or phytotoxicity of 50% to less than 60%) | 1 (Herbicidal effect or phytotoxicity of 10% to less than 20%) | 2 (Herbicidal effect or phytotoxicity of 20% to less than 30%) | 7 (Herbicidal effect or phytotoxicity of 70% to less than 80%) | 6 (Herbicidal effect or phytotoxicity of 60% to less than 70%) | 4 (Herbicidal effect or phytotoxicity of 40% to less than 50%) | – |
| CC1(C)CC(SCc2ccccc2)=NO1 [Compound 1] | – | 2 (Herbicidal effect or phytotoxicity of 20% to less than 30%) | 8 (Herbicidal effect or phytotoxicity of 80% to less than 90%) | 6 (Herbicidal effect or phytotoxicity of 60% to less than 70%) | 4 (Herbicidal effect or phytotoxicity of 40% to less than 50%) | 1 (Herbicidal effect or phytotoxicity of 10% to less than 20%) | – | – | – | – | – |
| CCOC(=O)c1cnn(C)c1S(=O)(=O)NC(=O)Nc1nc(OC)cc(OC)n1 [Pyrazosulfuron-ethyl, reference compound] | – | – | – | – | – | – | – | – | – | – | phytotoxicity index, Direct seeding rice (Direct seeding rice; Dose 3 g a.i./10a): 1 (Herbicidal effect or phytotoxicity of 10% to less than 20%); herbicidal effect index, Fimbristylis miliacea ([4]; Dose 3 g a.i./10a): 8 (Herbicidal effect or phytotoxicity of 80% to less than 90%); herbicidal effect index, Echinochloa crus-galli ([5]; Dose 3 g a.i./10a): 2 (Herbicidal effect or phytotoxicity of 20% to less than 30%); herbicidal effect index, Leptochloa chinensis ([6]; Dose 3 g a.i./10a): 0 (Herbicidal effect (growth inhibition) or phytotoxicity of less that 10%); herbicidal effect index, Monochoria vaginalis ([7]; Dose 3 g a.i./10a): 6 (Herbicidal effect or phytotoxicity of 60% to less than 70%) |
| C#CCOc1ccc(Cl)c(Cl)c1CS(=O)(=O)C1=NOC(C)(C)C1 [Compound 33] | 1 (Herbicidal effect or phytotoxicity of 10% to less than 20%) | – | – | – | – | – | 3 (Herbicidal effect or phytotoxicity of 30% to less than 40%) | 7 (Herbicidal effect or phytotoxicity of 70% to less than 80%) | 6 (Herbicidal effect or phytotoxicity of 60% to less than 70%) | 6 (Herbicidal effect or phytotoxicity of 60% to less than 70%) | – |
| COCc1cccc(C(O)c2nc(OC)cc(OC)n2)c1NS(=O)(=O)C(F)F (stereo not shown) [Pyrimisulfan, reference compound] | – | – | – | – | – | – | – | – | – | – | herbicidal effect index, Cyperus serotinus (Cyperus serotinus Rottb.; Dose 1 g a.i./10a): 9 (Herbicidal effect or phytotoxicity of 90% to less than 100%); herbicidal effect index, Echinochloa oryzicola ([1]; Dose 1 g a.i./10a): 6 (Herbicidal effect or phytotoxicity of 60% to less than 70%); herbicidal effect index, Schoenoplectus juncoides ([2]; Dose 1 g a.i./10a): 9 (Herbicidal effect or phytotoxicity of 90% to less than 100%); herbicidal effect index, Monochoria vaginalis ([3]; Dose 1 g a.i./10a): 6 (Herbicidal effect or phytotoxicity of 60% to less than 70%); phytotoxicity index, Transplanted Rice (Transplanted Rice; Dose 1 g a.i./10a): 1 (Herbicidal effect or phytotoxicity of 10% to less than 20%) |
| CC1(C)CC(S(=O)(=O)Cc2c(OCC(F)F)ccc(Cl)c2Cl)=NO1 [Compound 34] | 2 (Herbicidal effect or phytotoxicity of 20% to less than 30%) | – | – | – | – | – | 4 (Herbicidal effect or phytotoxicity of 40% to less than 50%) | 5 (Herbicidal effect or phytotoxicity of 50% to less than 60%) | 3 (Herbicidal effect or phytotoxicity of 30% to less than 40%) | 5 (Herbicidal effect or phytotoxicity of 50% to less than 60%) | – |
| CC1(C)CC(S(=O)(=O)Cc2c(OCC(F)(F)F)ccc(Cl)c2Cl)=NO1 [Compound 31] | 2 (Herbicidal effect or phytotoxicity of 20% to less than 30%) | 2 (Herbicidal effect or phytotoxicity of 20% to less than 30%) | 8 (Herbicidal effect or phytotoxicity of 80% to less than 90%) | 4 (Herbicidal effect or phytotoxicity of 40% to less than 50%) | 5 (Herbicidal effect or phytotoxicity of 50% to less than 60%) | 1 (Herbicidal effect or phytotoxicity of 10% to less than 20%) | 2 (Herbicidal effect or phytotoxicity of 20% to less than 30%) | 6 (Herbicidal effect or phytotoxicity of 60% to less than 70%) | 3 (Herbicidal effect or phytotoxicity of 30% to less than 40%) | 3 (Herbicidal effect or phytotoxicity of 30% to less than 40%) | – |
| CCC(CC)Nc1c([N+](=O)[O-])cc(C)c(C)c1[N+](=O)[O-] [Pendimethalin, reference compound] | – | – | – | – | – | – | – | – | – | – | phytotoxicity index, Direct seeding rice (Direct seeding rice; Dose 80 g a.i./10a): 1 (Herbicidal effect or phytotoxicity of 10% to less than 20%); herbicidal effect index, Fimbristylis miliacea ([4]; Dose 80 g a.i./10a): 3 (Herbicidal effect or phytotoxicity of 30% to less than 40%); herbicidal effect index, Echinochloa crus-galli ([5]; Dose 80 g a.i./10a): 5 (Herbicidal effect or phytotoxicity of 50% to less than 60%); herbicidal effect index, Leptochloa chinensis ([6]; Dose 80 g a.i./10a): 5 (Herbicidal effect or phytotoxicity of 50% to less than 60%); herbicidal effect index, Monochoria vaginalis ([7]; Dose 80 g a.i./10a): 2 (Herbicidal effect or phytotoxicity of 20% to less than 30%) |
